Results on 16 molecules are retold here after patent US10947252B2, “Inhibitors of KEAP1-Nrf2 protein-protein interaction” (Janssen Pharmaceutica NV, priority 2018, dated 2021).

The subject of experiment [1] is Glo-Response ARE-luc2P HEK293 cell line. Nature of the experiment: ARE luciferase reporter cell-based assay.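 Also: luciferase signal tracks Nrf2 activation of the ARE once compounds disrupt KEAP1-Nrf2 binding, read with One-Glo reagent, DMSO serving as low control.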 Conditions: Homo sapiens, HEK293, 24 h, average of results obtained.
Experiment [2] concerns the target Kelch domain of human KEAP1 (321-624 aa) (Homo sapiens (Human), UniProt Q14145). Briefly: KEAP1 KELCH ThermoFluor binding assay.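 Also: Ligand-induced melting temperature shift of E. coli-expressed KEAP1 Kelch protein, Kd estimated from concentration-response curves of ΔTm.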 Conditions: KEAP Kelch […], 1,8-ANS, pH 7.0, average of results obtained, read-out: Tf Kd.

Chain of Kelch domain of human KEAP1 (321-624 aa) (Q14145 321-624): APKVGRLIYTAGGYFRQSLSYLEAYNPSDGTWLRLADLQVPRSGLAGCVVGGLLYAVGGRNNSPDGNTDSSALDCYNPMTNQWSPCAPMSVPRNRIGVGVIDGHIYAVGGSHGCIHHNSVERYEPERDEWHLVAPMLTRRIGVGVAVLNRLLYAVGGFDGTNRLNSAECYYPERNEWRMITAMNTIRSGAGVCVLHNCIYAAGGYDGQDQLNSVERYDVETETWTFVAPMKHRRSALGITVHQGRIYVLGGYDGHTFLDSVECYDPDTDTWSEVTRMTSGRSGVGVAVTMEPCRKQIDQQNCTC

In general, EC50 refers to the concentration at which the effect is half-maximal. A high value points to lower potency in that assay. What is called Kd is the concentration at which binding is half-saturated. `Cc1ccc([C@@H](c2ccn3c(C4CC4)nnc3c2C)C(C)(C)C(=O)O)cc1CN1CC2(COC2)Oc2ncccc2S1(=O)=O` (single isomer, unassigned) [Example 621, (*S)-3-(3-Cyclopropyl-8-methyl-[1,2,4]triazolo[4,3-a]pyridin-7-yl)-3-(3-((1′,1′-dioxidospiro[oxetane-3,4′-pyrido[2,3-b][1,4,5]oxathiazepin]-2′(3′H)-yl)methyl)-4-methylphenyl)-2,2-dimethylpropanoic Acid] yielded an EC50 in experiment [1] of 5640 nM. The Kd in experiment [2] was below 1 nM.

Molecule `Cc1cnc2c(c1)S(=O)(=O)N(Cc1cc([C@@H](c3ccn4c(C5CC5)nnc4c3C)C(C)(C)C(=O)O)ccc1C)CC1(COC1)O2` (single isomer, unassigned) [Example 622, (*S)-3-(3-Cyclopropyl-8-methyl-[1,2,4]triazolo[4,3-a]pyridin-7-yl)-2,2-dimethyl-3-(4-methyl-3-((8′-methyl-1′,1′-dioxidospiro[oxetane-3,4′-pyrido[2,3-b][1,4,5]oxathiazepin]-2′(3′H)-yl)methyl)phenyl)propanoic Acid] displayed an EC50 in experiment [1] of 3230 nM. For the same molecule, the Kd in experiment [2] was 2530 nM.

`Cc1cnc2c(c1)S(=O)(=O)N(Cc1cc([C@@H](c3ccc4c(nnn4C4CC4)c3C)C(C)(C)C(=O)O)cnc1C)CC1(COC1)O2` (single isomer, unassigned) [Example 623, (*R)-3-(1-Cyclopropyl-4-methyl-1H-benzo[d][1,2,3]triazol-5-yl)-2,2-dimethyl-3-(6-methyl-5-((8′-methyl-1′,1′-dioxidospiro[oxetane-3,4′-pyrido[2,3-b][1,4,5]]oxathiazepin]-2′(3′H)-yl)methyl)pyridine-3-yl)propanoic Acid] registered a concentration for a half-maximal effect (EC50) in experiment [1] of 7.5 nM. For the same molecule, in experiment [2], the Kd was below 1 nM.

As to `Cc1cnc2c(c1)S(=O)(=O)N(Cc1cc([C@H](c3ccc4c(nnn4C4CC4)c3C)C(C)(C)C(=O)O)cnc1C)CC1(COC1)O2` (single isomer, unassigned) [Example 624, (*S)-3-(1-Cyclopropyl-4-methyl-1H-benzo[d][1,2,3]triazol-5-yl)-2,2-dimethyl-3-(6-methyl-5-((8′-methyl-1′,1′-dioxidospiro[oxetane-3,4′-pyrido[2,3-b][1,4,5]]oxathiazepin]-2′(3′H)-yl)methyl)pyridine-3-yl)propanoic Acid], the EC50 in experiment [1] was found to be 3660 nM. In experiment [2], the Kd is 18400 nM.

In experiment [1], `Cc1cc2c(nc1OCCN1CCCC1)OC1(CC1)CN(Cc1cc([C@@H](c3ccc4c(nnn4C4CC4)c3C)C(C)(C)C(=O)O)cnc1C)S2(=O)=O` (single isomer, unassigned) [Example 625, (*R)-3-(1-Cyclopropyl-4-methyl-1H-benzo[d][1,2,3]triazol-5-yl)-2,2-dimethyl-3-(6-methyl-5-((8′-methyl-1′,1′-dioxido-7′-(2-(pyrrolidine-1-yl)ethoxy)spiro[cyclopropane-1,4′-pyrido[2,3-b][1,4,5]]oxathiazepin]-2′(3′H)-yl)methyl)pyridine-3-yl)propanoic Acid] yielded an EC50 of 70.6 nM. Besides, the Kd in experiment [2] was below 1 nM.

For `Cc1cnc2c(c1)S(=O)(=O)N(Cc1nc([C@H](c3ccn4c(C(F)F)nnc4c3C)C(C)(C)C(=O)O)ccc1C)CC1(COC1)O2` (single isomer, unassigned) [Example 626, (*R)-3-(3-(Difluoromethyl)-8-methyl-[1,2,4]triazolo[4,3-a]pyridin-7-yl)-2,2-dimethyl-3-(5-methyl-6-((8′-methyl-1′,1′-dioxidospiro[oxetane-3,4′-pyrido[2,3-b][1,4,5]oxathiazepin]-2′(3′H)-yl)methyl)pyridin-2-yl)propanoic Acid], the midpoint of the response in experiment [1], the EC50, lay at 229 nM. Also, in experiment [2], the equilibrium dissociation constant (Kd) was determined as 2980 nM.

As to `Cc1cnc2c(c1)S(=O)(=O)N(Cc1nc([C@@H](c3ccn4c(C(F)F)nnc4c3C)C(C)(C)C(=O)O)ccc1C)CC1(COC1)O2` (single isomer, unassigned) [Example 627, (*S)-3-(3-(Difluoromethyl)-8-methyl-[1,2,4]triazolo[4,3-a]pyridin-7-yl)-2,2-dimethyl-3-(5-methyl-6-((8′-methyl-1′,1′-dioxidospiro[oxetane-3,4′-pyrido[2,3-b][1,4,5]oxathiazepin]-2′(3′H)-yl)methyl)pyridin-2-yl)propanoic Acid], in experiment [1], a half-maximal response (EC50) required 1.35 nM. In addition, the Kd in experiment [2] was below 1 nM.

For `Cc1cc2c(nc1OCCN1CCCC1)OC1(CC1)CN(Cc1cc([C@H](c3ccc4c(nnn4C4CC4)c3C)C(C)(C)C(=O)O)cnc1C)S2(=O)=O` (single isomer, unassigned) [Example 628, (*S)-3-(1-Cyclopropyl-4-methyl-1H-benzo[d][1,2,3]triazol-5-yl)-2,2-dimethyl-3-(6-methyl-5-((8′-methyl-1′,1′-dioxido-7′-(2-(pyrrolidine-1-yl)ethoxy)spiro[cyclopropane-1,4′-pyrido[2,3-b][1,4,5]]oxathiazepin]-2′(3′H)-yl)methyl)pyridine-3-yl)propanoic Acid], the 50% effective concentration (EC50) in experiment [1] is above 20000 nM. In addition, in experiment [2], the Kd was 15400 nM.

In experiment [1], `Cc1cnc2c(c1)S(=O)(=O)N(Cc1nc([C@H](c3ccn4c(C(F)(F)F)nnc4c3C)C(C)(C)C(=O)O)ccc1C)CC1(CNC1)O2` (single isomer, unassigned) [Example 629, (*R)-2,2-Dimethyl-3-(8-methyl-3-(trifluoromethyl)-[1,2,4]triazolo[4,3-a]pyridin-7-yl)-3-(5-methyl-6-((8′-methyl-1′,1′-dioxidospiro[azetidine-3,4′-pyrido[2,3-b][1,4,5]oxathiazepin]-2′(3′H)-yl)methyl)pyridin-2-yl)propanoic Acid] registered an EC50 above 20000 nM. Besides, the Kd in experiment [2] worked out at 131000 nM.

As for `Cc1cnc2c(c1)S(=O)(=O)N(Cc1nc([C@@H](c3ccn4c(C(F)(F)F)nnc4c3C)C(C)(C)C(=O)O)ccc1C)CC1(CNC1)O2` (single isomer, unassigned) [Example 630, (*S)-2,2-Dimethyl-3-(8-methyl-3-(trifluoromethyl)-[1,2,4]triazolo[4,3-a]pyridin-7-yl)-3-(5-methyl-6-((8′-methyl-1′,1′-dioxidospiro[azetidine-3,4′-pyrido[2,3-b][1,4,5]oxathiazepin]-2′(3′H)-yl)methyl)pyridin-2-yl)propanoic Acid], in experiment [1], the concentration for a half-maximal effect (EC50) is 81.8 nM. The Kd in experiment [2] stood at 3.81 nM.

`Cc1cnc2c(c1)S(=O)(=O)N(Cc1nc([C@H](c3ccn4c(C(F)F)nnc4c3C)C(C)(C)C(=O)O)ccc1C)CC1(CNC1)O2` (single isomer, unassigned) [Example 631, (*R)-3-(3-(Difluoromethyl)-8-methyl-[1,2,4]triazolo[4,3-a]pyridin-7-yl)-2,2-dimethyl-3-(5-methyl-6-((8′-methyl-1′,1′-dioxidospiro[azetidine-3,4′-pyrido[2,3-b][1,4,5]oxathiazepin]-2′(3′H)-yl)methyl)pyridin-2-yl)propanoic Acid] yielded an EC50 in experiment [1] of 76.8 nM. In experiment [2], the Kd is 1.08 nM.

In the case of `Cc1cnc2c(c1)S(=O)(=O)N(Cc1nc([C@@H](c3ccn4c(C(F)F)nnc4c3C)C(C)(C)C(=O)O)ccc1C)CC1(CNC1)O2` (single isomer, unassigned) [Example 632, (*S)-3-(3-(Difluoromethyl)-8-methyl-[1,2,4]triazolo[4,3-a]pyridin-7-yl)-2,2-dimethyl-3-(5-methyl-6-((8′-methyl-1′,1′-dioxidospiro[azetidine-3,4′-pyrido[2,3-b][1,4,5]oxathiazepin]-2′(3′H)-yl)methyl)pyridin-2-yl)propanoic Acid], the EC50 in experiment [1] stood at 18100 nM. Further, the Kd in experiment [2] stood at 21200 nM.

In experiment [1], `Cc1ccc([C@H](c2ccn3c(C(F)(F)F)nnc3c2C)C(C)(C)C(=O)O)nc1CN1CC2(CC2)Oc2nc(OCCN3CCCC3)c(C)cc2S1(=O)=O` (single isomer, unassigned) [Example 633, (*R)-2,2-Dimethyl-3-(8-methyl-3-(trifluoromethyl)-[1,2,4]triazolo[4,3-a]pyridin-7-yl)-3-(5-methyl-6-((8′-methyl-1′,1′-dioxido-7′-(2-(pyrrolidin-1-yl)ethoxy)spiro[cyclopropane-1,4′-pyrido[2,3-b][1,4,5]oxathiazepin]-2′(3′H)-yl)methyl)pyridin-2-yl)propanoic Acid] returned an EC50 of 1750 nM. In addition, in experiment [2], the Kd worked out at 2260 nM.

As for `Cc1ccc([C@@H](c2ccn3c(C(F)(F)F)nnc3c2C)C(C)(C)C(=O)O)nc1CN1CC2(CC2)Oc2nc(OCCN3CCCC3)c(C)cc2S1(=O)=O` (single isomer, unassigned) [Example 634, (*S)-2,2-Dimethyl-3-(8-methyl-3-(trifluoromethyl)-[1,2,4]triazolo[4,3-a]pyridin-7-yl)-3-(5-methyl-6-((8′-methyl-1′,1′-dioxido-7′-(2-(pyrrolidin-1-yl)ethoxy)spiro[cyclopropane-1,4′-pyrido[2,3-b][1,4,5]oxathiazepin]-2′(3′H)-yl)methyl)pyridin-2-yl)propanoic Acid], the EC50 in experiment [1] is 9.53 nM. Further, the Kd in experiment [2] was below 1 nM.

In experiment [1], `Cc1cnc([C@H](c2ccn3c(C(F)F)nnc3c2C)C(C)(C)C(=O)O)cc1CN1CC2(CC2)Oc2nc(OCCN3CCCC3)c(C)cc2S1(=O)=O` (single isomer, unassigned) [Example 635, (*R)-3-(3-(Difluoromethyl)-8-methyl-[1,2,4]triazolo[4,3-a]pyridin-7-yl)-2,2-dimethyl-3-(5-methyl-4-((8′-methyl-1′,1′-dioxido-7′-(2-(pyrrolidin-1-yl)ethoxy)spiro[cyclopropane-1,4′-pyrido[2,3-b][1,4,5]oxathiazepin]-2′(3′H)-yl)methyl)pyridin-2-yl)propanoic Acid] displayed an EC50 of 3590 nM. In addition, the dissociation constant (Kd) in experiment [2] is 1190 nM.

The molecule `Cc1cnc([C@@H](c2ccn3c(C(F)F)nnc3c2C)C(C)(C)C(=O)O)cc1CN1CC2(CC2)Oc2nc(OCCN3CCCC3)c(C)cc2S1(=O)=O` (single isomer, unassigned) [Example 636, (*S)-3-(3-(Difluoromethyl)-8-methyl-[1,2,4]triazolo[4,3-a]pyridin-7-yl)-2,2-dimethyl-3-(5-methyl-4-((8′-methyl-1′,1′-dioxido-7′-(2-(pyrrolidin-1-yl)ethoxy)spiro[cyclopropane-1,4′-pyrido[2,3-b][1,4,5]oxathiazepin]-2′(3′H)-yl)methyl)pyridin-2-yl)propanoic Acid] returned an EC50 in experiment [1] of 40.2 nM. Further, the equilibrium dissociation constant (Kd) in experiment [2] was below 1 nM.
